Earlier results as cited in US20020048596A1, “PREPARATION FOR THE TRANSPORT OF AN ACTIVE SUBSTANCE ACROSS BARRIERS” (priority 1999, published 2002).
Like-named read-outs stand apart in the source and are kept apart here.

## distearoyl phosphomaltobionamide
In water / suspension medium
  CMC: CMC = 10^−5 M

## distearoyl glycerophosphoethanolamine triazopolyethylene glycol (5000)
In water / suspension medium
  CMC: CMC = 10^−5M

## CC(C)Cc1ccc(C(C)C(=O)O)cc1 (stereo not shown) [ibuprofen, reference compound]
  solubility: ibuprofen, solubility ≦ 5 × 10^−5M

## CCCCCCCCCC(=O)OC[C@H](COP(=O)([O-])OCC[N+](C)(C)C)OC(=O)CCCCCCCCC [didecanoyl phosphatidyl choline]
Unit not given
  CMC: CMC ∞ 10^−6
